Experimental findings from patent US10513521B2, “Compositions and methods for inhibiting BMP” (The Brigham and Women's Hospital, Inc., priority 2014, dated 2019) are described below.

One experiment deals with ALK1 (Homo sapiens, UniProt P37023). Briefly: TR-FRET enzymatic ALK kinase assay, ALK1. A general note: In TR-FRET formats the signal depends on donor and acceptor labels being close together.
Experiment [1] addresses T1, ALK2 (Mus musculus, UniProt P37172).
T1 construct: The C2C12 cell line was selected for the measurement of ALK2 activity using BMP6 as the agonist; host or cells: C2C12
T1 sequence (P37172 21-509): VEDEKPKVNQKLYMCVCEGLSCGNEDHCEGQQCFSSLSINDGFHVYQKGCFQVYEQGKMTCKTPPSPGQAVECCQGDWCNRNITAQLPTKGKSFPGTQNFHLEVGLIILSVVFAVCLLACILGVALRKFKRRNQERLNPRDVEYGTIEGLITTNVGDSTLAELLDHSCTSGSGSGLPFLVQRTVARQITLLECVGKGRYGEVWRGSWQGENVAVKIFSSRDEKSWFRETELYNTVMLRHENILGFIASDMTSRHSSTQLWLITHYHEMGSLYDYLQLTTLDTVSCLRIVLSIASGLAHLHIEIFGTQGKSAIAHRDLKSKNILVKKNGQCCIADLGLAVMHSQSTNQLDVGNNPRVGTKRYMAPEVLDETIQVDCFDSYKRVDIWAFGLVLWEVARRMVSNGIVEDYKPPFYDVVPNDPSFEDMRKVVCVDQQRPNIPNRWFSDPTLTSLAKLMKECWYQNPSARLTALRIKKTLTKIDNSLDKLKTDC
Briefly: HTRF pSMAD1 cell-based ALK2 assay (C2C12 cells, BMP6 as agonist). The gist of the method:
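Phospho-SMAD1 HTRF readout, detection incubated overnight at room temperature. Before that: starved cells in 0.1% FBS for 4 h, 30 min compound pretreatment, then 30 min agonist, BMP6 on C2C12 or BMP9 on BAOEC.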

A short description of experiment [2]: Cell-based assay, TGFb1 (Cell IC50).
Another experiment addresses ALK3 (Homo sapiens, UniProt P36894). Briefly: TR-FRET enzymatic ALK kinase assay, ALK3.
Another experiment concerns the target ALK6 (Homo sapiens, UniProt O00238). Kind of experiment: TR-FRET enzymatic ALK kinase assay, ALK6.
Experiment [3] concerns the target T2, ALK2 (Homo sapiens, UniProt Q04771).
T2 sequence (Q04771 21-509): T1 sequence (P37172 21-509) with V1M, Q10P, I121L, E162D, S310P
Briefly: TR-FRET enzymatic ALK kinase assay, ALK2.

The target of the next experiment is T3, ALK5 (Homo sapiens, UniProt P36897).
T3 sequence (P36897 34-503): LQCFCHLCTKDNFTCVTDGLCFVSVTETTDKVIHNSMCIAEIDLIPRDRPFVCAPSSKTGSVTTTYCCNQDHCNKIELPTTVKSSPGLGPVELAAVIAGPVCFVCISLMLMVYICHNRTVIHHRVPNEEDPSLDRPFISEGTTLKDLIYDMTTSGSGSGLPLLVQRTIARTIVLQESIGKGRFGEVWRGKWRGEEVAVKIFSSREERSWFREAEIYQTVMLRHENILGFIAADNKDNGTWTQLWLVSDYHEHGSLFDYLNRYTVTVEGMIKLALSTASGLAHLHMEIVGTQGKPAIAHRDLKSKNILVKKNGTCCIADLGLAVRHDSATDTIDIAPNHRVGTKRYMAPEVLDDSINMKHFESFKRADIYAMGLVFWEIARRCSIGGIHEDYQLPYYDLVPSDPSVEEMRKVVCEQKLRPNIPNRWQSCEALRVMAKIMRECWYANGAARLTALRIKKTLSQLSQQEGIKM
Kind of experiment: TR-FRET enzymatic ALK kinase assay, ALK5.

The target in a further experiment is T4, ALK4 (Homo sapiens, UniProt P36896).
T4 sequence (P36896 24-505): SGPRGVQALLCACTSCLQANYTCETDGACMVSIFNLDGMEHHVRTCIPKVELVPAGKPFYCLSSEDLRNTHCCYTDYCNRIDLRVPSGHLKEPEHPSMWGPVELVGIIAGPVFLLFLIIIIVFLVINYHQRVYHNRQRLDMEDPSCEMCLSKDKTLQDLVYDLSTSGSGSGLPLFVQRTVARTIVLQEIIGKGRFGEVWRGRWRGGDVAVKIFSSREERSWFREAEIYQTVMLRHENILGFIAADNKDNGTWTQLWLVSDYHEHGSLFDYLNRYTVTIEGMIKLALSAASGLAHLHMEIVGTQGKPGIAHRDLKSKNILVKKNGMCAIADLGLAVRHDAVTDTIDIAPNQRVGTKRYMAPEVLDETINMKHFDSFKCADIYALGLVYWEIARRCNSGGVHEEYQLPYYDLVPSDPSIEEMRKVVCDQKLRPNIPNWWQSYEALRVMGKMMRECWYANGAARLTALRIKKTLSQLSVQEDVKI
Briefly: TR-FRET enzymatic ALK kinase assay, ALK4.

Setting [4] is: cell-based assay, BMP6, read-out: Cell IC50 BMP6.

Residue numbers refer to the chain shown, from its start. Read-outs that look alike come from different tables or passages of the source. A value given as a limit tells only on which side of the number the result lay.

ALK3, sequence (P36894 24-532): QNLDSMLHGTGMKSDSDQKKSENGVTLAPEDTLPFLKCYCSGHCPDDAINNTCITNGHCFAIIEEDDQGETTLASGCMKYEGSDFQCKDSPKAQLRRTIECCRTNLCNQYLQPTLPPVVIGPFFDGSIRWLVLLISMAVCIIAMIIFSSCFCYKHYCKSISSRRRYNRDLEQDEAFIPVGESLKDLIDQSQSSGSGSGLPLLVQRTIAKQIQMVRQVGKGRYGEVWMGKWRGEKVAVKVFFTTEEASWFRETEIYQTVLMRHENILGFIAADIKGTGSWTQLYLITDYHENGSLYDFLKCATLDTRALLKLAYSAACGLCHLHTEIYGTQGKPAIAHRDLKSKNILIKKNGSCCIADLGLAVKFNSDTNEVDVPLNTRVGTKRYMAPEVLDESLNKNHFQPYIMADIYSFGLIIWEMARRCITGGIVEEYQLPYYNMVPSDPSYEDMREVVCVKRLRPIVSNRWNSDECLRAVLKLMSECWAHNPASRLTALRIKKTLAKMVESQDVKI
ALK1, sequence (P37023 22-503): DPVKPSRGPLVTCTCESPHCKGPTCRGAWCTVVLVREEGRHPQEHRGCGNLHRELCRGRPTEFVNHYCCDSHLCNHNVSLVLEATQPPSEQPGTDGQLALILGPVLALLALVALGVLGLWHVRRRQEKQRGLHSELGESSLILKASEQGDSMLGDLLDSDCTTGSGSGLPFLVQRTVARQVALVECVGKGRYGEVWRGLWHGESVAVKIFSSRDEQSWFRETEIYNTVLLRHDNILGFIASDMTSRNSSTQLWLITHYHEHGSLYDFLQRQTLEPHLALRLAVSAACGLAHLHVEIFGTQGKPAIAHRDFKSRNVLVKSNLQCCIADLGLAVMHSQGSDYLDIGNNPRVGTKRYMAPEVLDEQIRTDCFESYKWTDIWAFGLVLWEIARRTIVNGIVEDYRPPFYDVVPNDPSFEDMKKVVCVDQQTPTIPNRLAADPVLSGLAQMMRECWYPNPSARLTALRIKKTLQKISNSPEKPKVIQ
ALK6, sequence (O00238 14-502): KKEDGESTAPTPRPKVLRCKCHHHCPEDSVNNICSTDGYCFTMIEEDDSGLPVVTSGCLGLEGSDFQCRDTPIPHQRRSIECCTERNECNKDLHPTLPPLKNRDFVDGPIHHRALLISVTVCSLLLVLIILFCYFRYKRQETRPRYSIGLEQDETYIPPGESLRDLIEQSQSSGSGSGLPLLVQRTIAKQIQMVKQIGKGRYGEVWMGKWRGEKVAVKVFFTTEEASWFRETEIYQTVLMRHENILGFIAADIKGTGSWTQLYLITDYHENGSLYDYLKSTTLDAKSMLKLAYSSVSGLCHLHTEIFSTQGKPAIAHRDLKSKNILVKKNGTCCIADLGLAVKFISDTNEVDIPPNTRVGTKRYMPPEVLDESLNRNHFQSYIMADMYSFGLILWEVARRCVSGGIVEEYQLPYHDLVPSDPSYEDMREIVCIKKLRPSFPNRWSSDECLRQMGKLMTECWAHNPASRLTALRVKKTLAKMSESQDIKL

`O=C(O)c1cccc2c(-c3cnn4cc(-c5ccc(N6CCNCC6)cc5)cnc34)cccc12` [Compound 5, 5-(6-(4-(piperazin-1-yl)phenyl)pyrazolo[1,5-a]pyrimidin-3-yl)-1-naphthoic acid]: the IC50 at ALK1 came to 45 nM; at ALK2 [1] (setting [4]), 100000 nM; in experiment [2], 100 µM; at ALK3, 17 nM; against ALK6, 0.017 µM; against ALK2 [3], 10 nM.
For the compound `c1cc(-c2nn[nH]n2)cc(-c2cnn3cc(-c4ccc(CCN5CCCCC5)cc4)cnc23)c1` [Compound 89, 3-(3-(2H-tetrazol-5-yl)phenyl)-6-(4-(2-(piperidin-1-yl)ethyl)phenyl)pyrazolo[1,5-a]pyrimidine], the IC50 was 7100 nM on ALK1; greater than 10 µM at ALK5; 12.4 µM in experiment [2]; greater than 10000 nM on ALK3; greater than 10 µM at ALK6; greater than 10 µM against ALK4. This compound came in with an IC50 at ALK2 [3] of 14 nM.
As to `CNC(=O)c1ccc(-c2cnn3cc(-c4ccc(N5CCNCC5)cc4)cnc23)c2ccccc12` [Compound 3, N-methyl-4-(6-(4-(piperazin-1-yl)phenyl)pyrazolo[1,5-a]pyrimidin-3-yl)-1-naphthamide], the IC50 against ALK1 worked out at 19600 nM; on ALK2 [1] (setting [4]), 3190 nM; in experiment [2], 15.3 µM; on ALK3 it was 18200 nM; against ALK2 [3] it was 1760 nM.
On to `CN(C)C(=O)c1ccc(-c2cnn3cc(-c4ccc(N5CCNCC5)cc4)cnc23)c2ccccc12` [Compound 4, N,N-dimethyl-4-(6-(4-(piperazin-1-yl)phenyl)pyrazolo[1,5-a]pyrimidin-3-yl)-1-naphthamide], for which the IC50 is 15400 nM at ALK1; 593 nM on ALK2 [1] (setting [4]); 10.6 µM in experiment [2]; 76.4 µM at ALK6; 2830 nM against ALK2 [3].
As to `N/C(=N/O)c1ccc(-c2cnn3cc(-c4ccc(N5CCNCC5)cc4)cnc23)cc1` [Compound 13, N′-hydroxy-4-(6-(4-(piperazin-1-yl)phenyl)pyrazolo[1,5-a]pyrimidin-3-yl)benzimidamide], the IC50 is 276 nM at ALK1; 380 nM at ALK2 [1] (setting [4]); 6.82 µM in experiment [2]; 880 nM on ALK3; 38 nM against ALK2 [3].
On to `CS(=O)(=O)c1cccc(-c2cnn3cc(-c4ccc(CN5CCCC5)cc4)cnc23)c1` [Compound 164, 3-(3-(methylsulfonyl)phenyl)-6-(4-(pyrrolidin-1-ylmethyl)phenyl)pyrazolo[1,5-a]pyrimidine], for which the IC50 against ALK1 turned out to be 33 nM; on ALK2 [1] (HTRF assay, BMP6 as agonist, C2C12 cells, read-out: BMP6 HTRF), 180 nM; against ALK5, 8.2 µM; against ALK3 it was 390 nM; against ALK6 it was 9.8 µM; against ALK4, 4.4 µM. For the same compound, on ALK2 [3], the IC50 worked out at 3 nM.
Turning to `C[C@@H]1CNC[C@H](C)N1c1ccc(-c2cnc3c(-c4ccc(CS(N)(=O)=O)cc4)cnn3c2)cc1` [Compound 71, (4-(6-(4-((2R,6S)-2,6-dimethylpiperazin-1-yl)phenyl)pyrazolo[1,5-a]pyrimidin-3-yl)phenyl)methanesulfonamide], the IC50 is greater than 10000 nM on ALK1; 22000 nM at ALK2 [1] (setting [4]); greater than 10 µM against ALK5; greater than 10000 nM against ALK3; greater than 10 µM against ALK6; greater than 10 µM at ALK4. The IC50 on ALK2 [3] was 5100 nM.
Turning to `C[C@@H]1CNC[C@H](C)N1c1ccc(-c2cnc3c(-c4cccc(CCO)c4)cnn3c2)cc1` [Compound 70, 2-(3-(6-(4-((2R,6S)-2,6-dimethylpiperazin-1-yl)phenyl)pyrazolo[1,5-a]pyrimidin-3-yl)phenyl)ethanol], the IC50 was 280 nM against ALK1; 1200 nM on ALK2 [1] (setting [4]); greater than 10 µM on ALK5; 2800 nM at ALK3; greater than 10 µM against ALK6; greater than 10 µM against ALK4. This compound also yielded an IC50 against ALK2 [3] of 66 nM.
Regarding `C[C@@H]1CNC[C@H](C)N1c1ccc(-c2cnc3c(-c4cccc(C(N)=O)c4)cnn3c2)cc1` [Compound 67, 3-(6-(4-((2R,6S)-2,6-dimethylpiperazin-1-yl)phenyl)pyrazolo[1,5-a]pyrimidin-3-yl)benzamide], the IC50 at ALK1 is 83 nM; on ALK2 [1] (setting [4]) it was 155 nM; on ALK5 it was 8.4 µM; against ALK3, 310 nM; against ALK6, 2.1 µM; at ALK4 it was 2.6 µM. The compound also returned an IC50 against ALK2 [3] of 33 nM.
Turning to `C[C@@H]1CNC[C@H](C)N1c1ccc(-c2cnc3c(-c4ccc(CN)c5ccccc45)cnn3c2)cc1` [Compound 23, (4-(6-(4-((2R,6S)-2,6-dimethylpiperazin-1-yl)phenyl)pyrazolo[1,5-a]pyrimidin-3-yl)naphthalen-1-yl)methanamine], the IC50 on ALK1 came to 9600 nM; at ALK2 [1] (setting [4]), 33 nM; in experiment [2], 10.8 µM; on ALK2 [3], 5310 nM.
For the compound `CN1CCN(c2ccc(-c3cnc4c(-c5ccc(S(N)(=O)=O)c6ccccc56)cnn4c3)cc2)CC1` [Compound 62, 4-(6-(4-(4-methylpiperazin-1-yl)phenyl)pyrazolo[1,5-a]pyrimidin-3-yl)naphthalene-1-sulfonamide], the IC50 at ALK1 is 140 nM; on ALK2 [1] (setting [4]), 3000 nM; against ALK5, greater than 10 µM; on ALK3 it was greater than 10000 nM; against ALK6, greater than 10 µM; against ALK4, greater than 10 µM. The IC50 on ALK2 [3] was determined as 74 nM.
In the case of `Cc1ccc(S(C)(=O)=O)cc1-c1cnn2cc(-c3ccc(N4[C@H](C)CNC[C@@H]4C)cc3)cnc12` [Compound 116, 6-(4-((2R,6S)-2,6-dimethylpiperazin-1-yl)phenyl)-3-(2-methyl-5-(methylsulfonyl)phenyl)pyrazolo[1,5-a]pyrimidine], the IC50 on ALK1 is greater than 10000 nM; on ALK2 [1] (setting [4]) it was 319 nM; on ALK5, greater than 10 µM; against ALK3, greater than 10000 nM; on ALK6 it was greater than 10 µM; against ALK4, greater than 10 µM. In addition, the IC50 at ALK2 [3] turned out to be 2200 nM.
